According to the NIST ThermoML archive (doi:10.1016/j.jct.2016.10.033):

Test: xn = mol fraction of the nth substance listed
Details: 103 kPa, Liquid, Vibrating tube method

C=C[Si](OC)(OC)OC [trimethoxy(vinyl)silane] + CO[Si](C)(OC)c1ccccc1
mass density [kg/m3]
Details	298.15 K	303.15 K	308.15 K	313.15 K	318.15 K
x2 = 0	965.69	960.02	954.26	948.47	942.63
x2 = 0.05	968.08	962.41	956.71	950.99	945.24
x2 = 0.1	970.32	964.72	959.1	953.45	947.77
x2 = 0.1499	972.48	966.94	961.39	955.8	950.2
x2 = 0.2	974.57	969.11	963.63	958.1	952.57
x2 = 0.2501	976.61	971.22	965.8	960.36	954.9
x2 = 0.2999	978.59	973.25	967.91	962.52	957.14
x2 = 0.35	980.49	975.22	969.93	964.61	959.27
x2 = 0.4001	982.35	977.14	971.9	966.65	961.37
x2 = 0.4501	984.15	978.99	973.81	968.61	963.4
x2 = 0.5	985.89	980.79	975.67	970.52	965.37
x2 = 0.5499	987.58	982.53	977.46	972.37	967.27
x2 = 0.6	989.22	984.22	979.2	974.17	969.12
x2 = 0.6499	990.82	985.86	980.89	975.91	970.93
x2 = 0.7	992.37	987.46	982.54	977.6	972.65
x2 = 0.75	993.89	989.02	984.15	979.26	974.36
x2 = 0.8001	995.35	990.53	985.7	980.86	976.01
x2 = 0.8498	996.76	991.99	987.21	982.41	977.61
x2 = 0.8999	998.15	993.42	988.68	983.93	979.18
x2 = 0.9499	999.49	994.81	990.11	985.41	980.69
